# Measured values published in US7094869B2, “Low molecular weight peptidomimetic growth hormone secretagogues” (Genentech, Inc., priority 1994, dated 2006).
# pEC50: −log10 of the molar value. Where two headings read alike, the source gives them in different places. Starred links: 1 amine or outer side, 2 acyl side, 3 side chain; linkers in the order of their positions; H or OH if unused. Non-standard residues stand in square brackets, D forms with d. Residues, ends and D or L forms follow the SMILES beside them. ξ: configuration not given here. dNMe2Nal = CN[C@H](Cc1ccc2ccccc2c1)C(=O)O; dPhe(4-Cl) = N[C@H](Cc1ccc(Cl)cc1)C(=O)O; 1Nal = N[C@@H](Cc1cccc2ccccc12)C(=O)O; d2Nal = N[C@H](Cc1ccc2ccccc2c1)C(=O)O; Ethylenediamine = C(CN[*:2])N[*:1]; d(hPhe) = N[C@H](CCc1ccccc1)C(=O)O; ξ2Nal = NC(Cc1ccc2ccccc2c1)C(=O)O; NMeF = CN[C@@H](Cc1ccccc1)C(=O)O; αMeF = C[C@](N)(Cc1ccccc1)C(=O)O; β3hF = N[C@H](CC(=O)O)Cc1ccccc1; Phe(ol) = N[C@H](CO)Cc1ccccc1; Nle = CCCC[C@H](N)C(=O)O; Inp = O=C(O)C1CCNCC1; ξK = NCCCCC(N)C(=O)O; βAla = NCCC(=O)O
# Tests used:
# rat pituitary cells = rat pituitary cells (Rattus norvegicus, UniProt O08725); conditions: read-out: PIT Cell EC50, GH release, 15 min incubation
# Method in brief: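 Primary rat anterior pituitary cells, cultured three days in DME low glucose/10% FBS, were washed, pre-incubated twice for 15 min, then challenged 15 min with test compounds (DMSO ≤0.1%) at 37 °C. Released GH was measured by two-site ELISA; EC50 came from 4-parameter fits, mean of three to four independent determinations.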
# growth hormone secretion = experiment: GHRP induced growth hormone secretion, intravenous administration (Rat IV); type: in vivo; conditions: iv injection, serum GH 10 min after injection
# Experimental: Immature weanling female Sprague Dawley rats were purchased from Charles River Labs (Portage, […].) and group housed with water and food available ad libitum. When the rats were 24-30 days old (weighing 50-90 g) they were anesthetized with pentobarbitone (4 mg in 0.5 ml, approximately 60 mg/kg) given by intraperitoneal injection. The rats were then placed briefly on a heated pad, to distend their tail veins, and given an intravenous tail vein injection of the peptides 20 minutes after receiving the anesthetic. The intravenous injection was of 0.1 ml using a 1 ml syringe. The injections contained graded doses of peptides or the vehicle (vehicle for all peptides given intravenously was a buffer of 20 mM sodium acetate, 45 g/l mannitol, pH 5.0). Ten minutes after the intravenous injection blood was taken by cardiac puncture, using a 3 ml syringe, and the rats were then sacrificed.
# The blood was then clotted on ice, centrifuged, serum decanted and frozen for subsequent analysis using the rat GH ELISA described elsewhere in the application. For the rat GH ELISA the serum was diluted 1:50 or 1:250, depending on the expected serum GH concentrations achieved, and assayed in duplicate.
# [1] = Table IV, formula III compounds
# [2] = Table III, formula IV compounds
# Chain of rat pituitary cells (O08725 whole entry): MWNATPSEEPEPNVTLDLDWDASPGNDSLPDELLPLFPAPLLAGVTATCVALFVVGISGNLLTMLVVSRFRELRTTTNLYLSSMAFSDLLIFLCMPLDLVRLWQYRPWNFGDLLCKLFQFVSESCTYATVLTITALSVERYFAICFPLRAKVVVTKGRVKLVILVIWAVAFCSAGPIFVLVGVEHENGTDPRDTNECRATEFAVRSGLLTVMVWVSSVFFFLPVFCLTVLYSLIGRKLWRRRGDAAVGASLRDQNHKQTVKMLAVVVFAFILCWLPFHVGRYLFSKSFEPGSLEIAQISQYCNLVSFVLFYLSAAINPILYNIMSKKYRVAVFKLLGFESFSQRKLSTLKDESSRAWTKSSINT
Structure (SMILES),pEC50 (rat pituitary cells; [1]),RAT IV ED50 (growth hormone secretion; Table IV),further results
NC(=O)[C@@H]1CCCN1C(=O)[C@@H](Cc1ccc2ccccc2c1)NC(=O)[C@@H](Cc1ccc2ccccc2c1)NC(=O)C1CCNCC1 [(inip) b b P amide] (H-[Inp][d2Nal][d2Nal]P-NH2),8.05,5 µg,–
"O=C(N[C@H](Cc1ccc2ccccc2c1)C(=O)N[C@H](Cc1ccc2ccccc2c1)C(=O)N[C@H](CO)Cc1ccccc1)C1CCNCC1 [(inip) b b Pol, (inip)-DβNal-DβNal-(L-Phenylalanol)] (H-[Inp][d2Nal][d2Nal][Phe(ol)])",9.70,5 µg,–
O=C(N[C@H](Cc1ccc2ccccc2c1)C(=O)N[C@H](Cc1ccc2ccccc2c1)C(=O)N[C@@H](Cc1ccc(O)cc1)C(=O)O)C1CCNCC1 [(inip) b b Y acid] (H-[Inp][d2Nal][d2Nal]Y-OH),8.30,10 µg,–
C[C@@](Cc1ccccc1)(NC(=O)[C@@H](Cc1ccc2ccccc2c1)NC(=O)[C@@H](Cc1ccc2ccccc2c1)NC(=O)C1CCNCC1)C(N)=O [(inip) b b amF amide] (H-[Inp][d2Nal][d2Nal][αMeF]-NH2),9.30,5 µg,–
O=C(N[C@H](Cc1ccc2ccccc2c1)C(=O)N[C@H](Cc1ccc2ccccc2c1)C(=O)NC1CCNCC1)C1CCNCC1 [(inip) b b api],8.57,25 µg,–
NC(=O)CCNC(=O)[C@@H](Cc1ccc2ccccc2c1)NC(=O)[C@@H](Cc1ccc2ccccc2c1)NC(=O)C1CCNCC1 [(inip) b b bA amide] (H-[Inp][d2Nal][d2Nal][βAla]-NH2),8.00,10 µg,–
"NCCCCNC(=O)[C@@H](Cc1ccc2ccccc2c1)NC(=O)[C@@H](Cc1ccc2ccccc2c1)NC(=O)C1CCNCC1 [(inip) b b bam, (inip)-DβNal-DβNal-[N-(4-aminobutyl)] amide]",7.73,3.3 µg,–
N[C@H]1CC[C@H](NC(=O)[C@@H](Cc2ccc3ccccc3c2)NC(=O)[C@@H](Cc2ccc3ccccc3c2)NC(=O)C2CCNCC2)CC1 [(inip) b b cxa],7.85,10 µg,–
NC(=O)[C@@H](Cc1ccccc1)NC(=O)[C@@H](Cc1ccc2ccccc2c1)NC(=O)[C@@H](Cc1ccc2ccccc2c1)NC(=O)C1CCNCC1 [(inip) b b f amide] (H-[Inp][d2Nal][d2Nal][dF]-NH2),9.22,20 µg,–
"NCCCCN(CCc1ccccc1)C(=O)[C@@H](Cc1ccc2ccccc2c1)NC(=O)[C@@H](Cc1ccc2ccccc2c1)NC(=O)C1CCNCC1 [(inip) b b fbd, (inip)-DβNal-DβNal-[N-(2-phenylethyl), N-(4-aminobutyl)] amide]",9.05,0.67 µg,–
NC(=O)CCN(CCc1ccccc1)C(=O)[C@@H](Cc1ccc2ccccc2c1)NC(=O)[C@@H](Cc1ccc2ccccc2c1)NC(=O)C1CCNCC1 [(inip) b b feb amide],9.52,0.67 µg,–
"NC(=O)C[C@H](Cc1ccccc1)NC(=O)[C@@H](Cc1ccc2ccccc2c1)NC(=O)[C@@H](Cc1ccc2ccccc2c1)NC(=O)C1CCNCC1 [(inip) b b hcF amide, (inip)-DβNal-DβNal-(3(S)-3-benzyl-β-Ala)-amide] (H-[Inp][d2Nal][d2Nal][β3hF]-NH2)",9.70,2.5 µg,–
CCCC[C@H](NC(=O)[C@@H](Cc1ccc2ccccc2c1)NC(=O)[C@@H](Cc1ccc2ccccc2c1)NC(=O)C1CCNCC1)C(N)=O [(inip) b b nL amide] (H-[Inp][d2Nal][d2Nal][Nle]-NH2),8.37,3.3 µg,–
"NCCCCC(NC(=O)[C@H](Cc1cccc2ccccc12)NC(=O)[C@@H](Cc1ccc2ccccc2c1)NC(=O)C(Cc1ccc2ccccc2c1)NC(=O)C1CCNCC1)C(N)=O (stereo partly drawn) [(inip) b b npA K amide, (inip)-DβNal-DβNal-αNal-Lys-amide] (H-[Inp][ξ2Nal][d2Nal][1Nal][ξK]-NH2)",–,–,pEC50 (rat pituitary cells; [2]): 10.00; RAT IV ED50 (growth hormone secretion; Table III): 1 µg
NC(=O)[C@H](Cc1cccc2ccccc12)NC(=O)[C@@H](Cc1ccc2ccccc2c1)NC(=O)[C@@H](Cc1ccc2ccccc2c1)NC(=O)C1CCNCC1 [(inip) b b npA amide] (H-[Inp][d2Nal][d2Nal][1Nal]-NH2),9.70,5 µg,–
O=C(N[C@H](Cc1ccc2ccccc2c1)C(=O)N[C@H](Cc1ccc2ccccc2c1)C(=O)N1CCNCC1)C1CCNCC1 [(inip) b b ppz],8.00,10 µg,–
NCCCNC(=O)[C@@H](Cc1ccc2ccccc2c1)NC(=O)[C@@H](Cc1ccc2ccccc2c1)NC(=O)C1CCNCC1 [(inip) b b ram],7.80,5 µg,–

Structure (SMILES),pEC50 (rat pituitary cells; [1]),RAT IV ED50 (growth hormone secretion; Table IV),further results
NCCNC(=O)[C@@H](Cc1ccc2ccccc2c1)NC(=O)[C@@H](Cc1ccc2ccccc2c1)NC(=O)C1CCNCC1 [(inip) b b tam] (H-[Inp]-[d2Nal]-[d2Nal]-Ethylenediamine),7.96,20 µg,–
O=C(N[C@H](Cc1ccc2ccccc2c1)C(=O)N[C@@H](CO)Cc1ccc2ccccc2c1)C1CCNCC1 [(inip) b bol],–,–,"pEC50 (rat pituitary cells; Table V, formula II compounds): 8.70; RAT IV ED50 (growth hormone secretion; Table V): 10 µg"
NC(=O)[C@H](Cc1ccccc1)NC(=O)[C@@H](Cc1ccc(Cl)cc1)NC(=O)[C@@H](Cc1ccc2ccccc2c1)NC(=O)C1CCNCC1 [(inip) b chf F amide] (H-[Inp][d2Nal][dPhe(4-Cl)]F-NH2),8.57,5 µg,–
NC(=O)[C@H](Cc1ccccc1)NC(=O)[C@@H](CCc1ccccc1)NC(=O)[C@@H](Cc1ccc2ccccc2c1)NC(=O)C1CCNCC1 [(inip) b hf F amide] (H-[Inp][d2Nal][d(hPhe)]F-NH2),7.85,10 µg,–
"O=C(N[C@H](Cc1ccc2ccccc2c1)C(=O)NCc1ccc2ccccc2c1)C1CCNCC1 [(inip) b man, (inip)-DβNal-(2-aminomethylnaphthyl) amide]",–,–,"pEC50 (rat pituitary cells; Table V, formula II compounds): 8.05; RAT IV ED50 (growth hormone secretion; Table V): 500 µg"
CN(C(=O)[C@@H](Cc1ccc2ccccc2c1)NC(=O)C1CCNCC1)[C@@H](CN)Cc1ccc2ccccc2c1 [(inip) b mbm],–,–,"pEC50 (rat pituitary cells; Table V, formula II compounds): 8.15; RAT IV ED50 (growth hormone secretion; Table V): 20 µg"
"CN(CCc1ccc2ccccc2c1)C(=O)[C@@H](Cc1ccc2ccccc2c1)NC(=O)C1CCNCC1 [(inip) b men, (inip)-DβNal-[N-methyl, N-1-{2-(2-naphthyl)ethyl}] amide]",–,–,"pEC50 (rat pituitary cells; Table V, formula II compounds): 7.92; RAT IV ED50 (growth hormone secretion; Table V): 500 µg"
"CN(C(=O)[C@@H](Cc1ccc2ccccc2c1)NC(=O)C1CCNCC1)[C@@H](CO)Cc1ccc2ccccc2c1 [(inip) b nbol, (inip)-DβNal-(N-Methyl-D-β-naphthylalanol)]",–,–,"pEC50 (rat pituitary cells; Table V, formula II compounds): 8.52; RAT IV ED50 (growth hormone secretion; Table V): 20 µg"
"CN(C(=O)C(Cc1ccc2ccccc2c1)NC(=O)C1CCNCC1)[C@H](Cc1ccc2ccccc2c1)C(=O)N[C@@H](Cc1ccccc1)C(=O)NC(CCCCN)C(N)=O (stereo partly drawn) [(inip) b nmb F K amide, (inip)-DβNal-(N-Me-DβNal)-Phe-Lys-amide] (H-[Inp][ξ2Nal][dNMe2Nal]F[ξK]-NH2)",–,–,pEC50 (rat pituitary cells; [2]): 9.70; RAT IV ED50 (growth hormone secretion; Table III): 1 µg
CN(C(=O)[C@@H](Cc1ccc2ccccc2c1)NC(=O)C1CCNCC1)[C@H](Cc1ccc2ccccc2c1)C(=O)N[C@@H](Cc1ccccc1)C(N)=O [(inip) b nmb F amide] (H-[Inp][d2Nal][dNMe2Nal]F-NH2),9.00,5 µg,–
"CN(C(=O)[C@@H](Cc1ccc2ccccc2c1)NC(=O)C1CCNCC1)[C@H](Cc1ccc2ccccc2c1)C(=O)NC1CCNCC1 [(inip) b nmb api, (inip)-DβNal-(N-Me-DβNal)-N-(4-piperidinyl) amide]",9.30,2 µg,–
"O=C(N[C@H](Cc1ccc2ccccc2c1)C(=O)NCCc1ccc2ccccc2c1)C1CCNCC1 [(inip) b npe, (inip)-DβNal-[N-1-{2-(2-naphthyl)ethyl}] amide]",–,–,"pEC50 (rat pituitary cells; Table V, formula II compounds): 7.96; RAT IV ED50 (growth hormone secretion; Table V): 500 µg"
"O=C(N[C@H](Cc1ccc2ccccc2c1)C(=O)NCCc1c[nH]c2ccccc12)C1CCNCC1 [(inip) b tra, (inip)-DβNal-[N-tryptaminyl] amide]",–,–,"pEC50 (rat pituitary cells; Table V, formula II compounds): 7.00; RAT IV ED50 (growth hormone secretion; Table V): 100 µg"
"NC(=O)[C@H](Cc1ccccc1)NC(=O)[C@@H](Cc1c[nH]c2ccccc12)NC(=O)[C@@H](Cc1ccc2ccccc2c1)NC(=O)C1CCNCC1 [(inip) b w F amide, (inip)-DβNal-(D-Trp)-Phe-amide] (H-[Inp][d2Nal][dW]F-NH2)",10.00,0.67 µg,–
CN(C(=O)[C@@H](Cc1ccc2ccccc2c1)NC(=O)[C@@H](Cc1ccc2ccccc2c1)NC(=O)C1CCNCC1)[C@@H](Cc1ccccc1)C(N)=O [(inip) bb nmF amide] (H-[Inp][d2Nal][d2Nal][NMeF]-NH2),9.22,5 µg,–
NC(=O)[C@H](Cc1ccccc1)NC(=O)[C@@H](Cc1ccc2ccccc2c1)NC(=O)[C@@H](Cc1ccc(Cl)cc1)NC(=O)C1CCNCC1 [(inip) chf b F amide] (H-[Inp][dPhe(4-Cl)][d2Nal]F-NH2),8.66,10 µg,–
